Test results reported in PubChem BioAssay (NCI).
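The concentration for 50% growth inhibition is given as GI50. Definition used: TGI = concentration required for complete inhibition of growth.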

Assays:
Assay in all cases: growth of human tumour cells (NCI), 384-well format
CCRF-CEM leukemia = system: CCRF-CEM leukemia
SK-MEL-5 melanoma = system: SK-MEL-5 melanoma
SF-295 CNS = system: SF-295 CNS
HS 578T breast = system: HS 578T breast
HOP-62 NSCLC = system: HOP-62 NSCLC
OVCAR-5 ovarian = system: OVCAR-5 ovarian
RXF 393 renal = system: RXF 393 renal
NCI-H460 NSCLC = system: NCI-H460 NSCLC
U251 glioblastoma = system: U251 glioblastoma
OVCAR-8 ovarian = system: OVCAR-8 ovarian
LOX IMVI melanoma = system: LOX IMVI melanoma
HL-60(TB) leukemia = system: HL-60(TB) leukemia
RPMI-8226 leukemia = system: RPMI-8226 leukemia
MDA-MB-435 melanoma = system: MDA-MB-435 melanoma
MDA-MB-468 breast = system: MDA-MB-468 breast
SK-MEL-28 melanoma = system: SK-MEL-28 melanoma
HCT-15 colon = system: HCT-15 colon
MALME-3M melanoma = system: MALME-3M melanoma
MDA-MB-231 breast = system: MDA-MB-231 breast
MOLT-4 leukemia = system: MOLT-4 leukemia
A549 NSCLC = system: A549 NSCLC
NCI-H322M lung = system: NCI-H322M lung
NCI/ADR-RES ovarian = system: NCI/ADR-RES ovarian
SF-539 CNS = system: SF-539 CNS
NCI-H226 lung = system: NCI-H226 lung
HCC-2998 colon = system: HCC-2998 colon
UACC-257 melanoma = system: UACC-257 melanoma
ACHN renal = system: ACHN renal
CAKI-1 renal = system: CAKI-1 renal
M14 melanoma = system: M14 melanoma
IGROV1 ovarian = system: IGROV1 ovarian
OVCAR-3 ovarian = system: OVCAR-3 ovarian
K-562 leukemia = system: K-562 leukemia
OVCAR-4 ovarian = system: OVCAR-4 ovarian
BT-549 breast = system: BT-549 breast
SN12C renal = system: SN12C renal
KM12 colon = system: KM12 colon
NCI-H23 lung = system: NCI-H23 lung
PC-3 prostate = system: PC-3 prostate
T-47D breast = system: T-47D breast
SK-MEL-2 melanoma = system: SK-MEL-2 melanoma
SF-268 CNS = system: SF-268 CNS
SK-OV-3 ovarian = system: SK-OV-3 ovarian
EKVX NSCLC = system: EKVX NSCLC
HT29 colon = system: HT29 colon
HCT-116 colon = system: HCT-116 colon
A498 renal = system: A498 renal
UACC-62 melanoma = system: UACC-62 melanoma
786-0 renal = system: 786-0 renal
UO-31 renal = system: UO-31 renal
COLO 205 colon = system: COLO 205 colon
NCI-H522 lung = system: NCI-H522 lung
SW-620 colon = system: SW-620 colon

CS(=O)(=O)Nc1cc(-c2ccc3ncnc(Nc4ccc(F)c(Cl)c4)c3c2)cnc1Cl gave a GI50 (CCRF-CEM leukemia) of 166 nM, a TGI (CCRF-CEM leukemia) of 466 nM and a GI50 (SK-MEL-5 melanoma) of 1030 nM. It also gave a TGI (SK-MEL-5 melanoma) of 2220 nM, a GI50 (SF-295 CNS) of 1290 nM and a TGI (SF-295 CNS) of 2930 nM. It also gave a GI50 (HS 578T breast) of 501 nM, a TGI (HS 578T breast) of 2310 nM and a GI50 (HOP-62 NSCLC) of 1430 nM. For the same molecule, the TGI (HOP-62 NSCLC) was 5190 nM, the GI50 (OVCAR-5 ovarian) was 939 nM and the TGI (OVCAR-5 ovarian) was 4550 nM. For the same molecule, the GI50 (RXF 393 renal) was 450 nM, the TGI (RXF 393 renal) was 1960 nM and the GI50 (NCI-H460 NSCLC) was 1010 nM. It also gave a TGI (NCI-H460 NSCLC) of 3840 nM, a GI50 (U251 glioblastoma) of 691 nM and a TGI (U251 glioblastoma) of 2110 nM. For the same molecule, the GI50 (OVCAR-8 ovarian) was 1910 nM, the TGI (OVCAR-8 ovarian) was 10100 nM and the GI50 (LOX IMVI melanoma) was 1220 nM. For the same molecule, the TGI (LOX IMVI melanoma) was 2560 nM, the GI50 (HL-60(TB) leukemia) was 158 nM and the TGI (HL-60(TB) leukemia) was 1060 nM. For the same molecule, the GI50 (RPMI-8226 leukemia) was 370 nM, the TGI (RPMI-8226 leukemia) was 1580 nM and the GI50 (MDA-MB-435 melanoma) was 1380 nM. The TGI (MDA-MB-435 melanoma) was 7870 nM, the GI50 (MDA-MB-468 breast) was 253 nM and the TGI (MDA-MB-468 breast) was 769 nM. It also gave a GI50 (SK-MEL-28 melanoma) of 728 nM, a TGI (SK-MEL-28 melanoma) of 8860 nM and a GI50 (HCT-15 colon) of 885 nM. It also gave a TGI (HCT-15 colon) of 3140 nM, a GI50 (MALME-3M melanoma) of 293 nM and a TGI (MALME-3M melanoma) of 1640 nM. For the same molecule, the GI50 (MDA-MB-231 breast) was 2330 nM, the TGI (MDA-MB-231 breast) was greater than 100000 nM and the GI50 (MOLT-4 leukemia) was 160 nM. For the same molecule, the TGI (MOLT-4 leukemia) was 348 nM, the GI50 (A549 NSCLC) was 1370 nM and the TGI (A549 NSCLC) was 2840 nM. For the same molecule, the GI50 (NCI-H322M lung) was 1190 nM, the TGI (NCI-H322M lung) was 3360 nM and the GI50 (NCI/ADR-RES ovarian) was 3600 nM. For the same molecule, the TGI (NCI/ADR-RES ovarian) was 40300 nM, the GI50 (SF-539 CNS) was 1480 nM and the TGI (SF-539 CNS) was 5050 nM. For the same molecule, the GI50 (NCI-H226 lung) was 1440 nM, the TGI (NCI-H226 lung) was 13400 nM and the GI50 (HCC-2998 colon) was 1180 nM. The TGI (HCC-2998 colon) was 2620 nM, the GI50 (UACC-257 melanoma) was 1360 nM and the TGI (UACC-257 melanoma) was 5540 nM. For the same molecule, the GI50 (ACHN renal) was 1800 nM, the TGI (ACHN renal) was greater than 100000 nM and the GI50 (CAKI-1 renal) was 492 nM. It also gave a TGI (CAKI-1 renal) of 2020 nM, a GI50 (M14 melanoma) of 1140 nM and a TGI (M14 melanoma) of 4000 nM. For the same molecule, the GI50 (IGROV1 ovarian) was 154 nM, the TGI (IGROV1 ovarian) was 471 nM and the GI50 (OVCAR-3 ovarian) was 457 nM. The TGI (OVCAR-3 ovarian) was 1850 nM, the GI50 (K-562 leukemia) was 1520 nM and the TGI (K-562 leukemia) was 10600 nM. The GI50 (OVCAR-4 ovarian) was 1220 nM, the TGI (OVCAR-4 ovarian) was 4450 nM and the GI50 (BT-549 breast) was 573 nM. The TGI (BT-549 breast) was 2340 nM, the GI50 (SN12C renal) was 524 nM and the TGI (SN12C renal) was 5250 nM. The GI50 (KM12 colon) was 2860 nM, the TGI (KM12 colon) was 19900 nM and the GI50 (NCI-H23 lung) was 1150 nM. The TGI (NCI-H23 lung) was 4030 nM, the GI50 (PC-3 prostate) was 872 nM and the TGI (PC-3 prostate) was 2280 nM. It also gave a GI50 (T-47D breast) of 85.5 nM, a TGI (T-47D breast) of 548 nM and a GI50 (SK-MEL-2 melanoma) of 1200 nM. For the same molecule, the TGI (SK-MEL-2 melanoma) was 2550 nM, the GI50 (SF-268 CNS) was 1420 nM and the TGI (SF-268 CNS) was 2900 nM. For the same molecule, the GI50 (SK-OV-3 ovarian) was 635 nM, the TGI (SK-OV-3 ovarian) was 3320 nM and the GI50 (EKVX NSCLC) was 498 nM. The TGI (EKVX NSCLC) was 2060 nM, the GI50 (HT29 colon) was 1110 nM and the TGI (HT29 colon) was 2520 nM. For the same molecule, the GI50 (HCT-116 colon) was 1140 nM, the TGI (HCT-116 colon) was 2640 nM and the GI50 (A498 renal) was 905 nM. It also gave a TGI (A498 renal) of 4060 nM, a GI50 (UACC-62 melanoma) of 1040 nM and a TGI (UACC-62 melanoma) of 2550 nM. It also gave a GI50 ([…]-0 renal) of 1350 nM, a TGI (786-0 renal) of 4820 nM and a GI50 (UO-31 renal) of 639 nM. It also gave a TGI (UO-31 renal) of 2420 nM, a GI50 (COLO 205 colon) of 1210 nM and a TGI (COLO 205 colon) of 2990 nM. It also gave a GI50 (NCI-H522 lung) of 547 nM, a TGI (NCI-H522 lung) of 2360 nM and a GI50 (SW-620 colon) of 1650 nM. The TGI (SW-620 colon) was 3840 nM.
